The record followed here is publication PMC6934184, “Selective DNA-PKcs inhibition extends the therapeutic index of localized radiotherapy and chemotherapy” (The Journal of Clinical Investigation, 2019).

The target in this assay is T1, FRK (PTK5) (Homo sapiens, UniProt P42685).
T1 construct: purchased Thermo Fisher Scientific (Life Technologies) SelectScreen
Put plainly: SelectScreen Z'LYTE. The assay is classed as biochemical. The essentials: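 NU5455 was profiled across the SelectScreen Broad panel of kinase activity and binding assays. Z'LYTE reactions such as CSF1R ran at apparent Km ATP, while the Adapta CAMK1 assay used ATP listed as 10. Values are given as percent.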

T1 sequence (P42685 whole entry): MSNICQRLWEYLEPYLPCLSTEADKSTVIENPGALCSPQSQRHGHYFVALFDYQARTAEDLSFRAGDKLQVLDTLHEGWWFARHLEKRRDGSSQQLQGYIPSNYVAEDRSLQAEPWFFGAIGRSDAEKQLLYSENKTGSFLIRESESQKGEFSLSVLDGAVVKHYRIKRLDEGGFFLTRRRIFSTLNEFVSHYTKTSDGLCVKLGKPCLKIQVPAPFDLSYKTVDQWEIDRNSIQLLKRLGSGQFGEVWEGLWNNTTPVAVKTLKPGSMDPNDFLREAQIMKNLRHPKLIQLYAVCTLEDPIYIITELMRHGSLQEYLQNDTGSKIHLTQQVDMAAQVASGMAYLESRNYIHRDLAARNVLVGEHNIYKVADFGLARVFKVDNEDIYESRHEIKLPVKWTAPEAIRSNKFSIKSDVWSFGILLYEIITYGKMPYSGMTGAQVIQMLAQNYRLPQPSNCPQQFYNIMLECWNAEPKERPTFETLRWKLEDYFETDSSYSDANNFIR

For `CN(C(=O)CN1CCOCC1)c1ccc2sc3c(-c4cccc5c(=O)cc(N6CC7CCC(C6)O7)oc45)cccc3c2c1` [NU5455], the inhibition (usually the change of the read-out against control, counted positive when it falls) at 1 µM is 3.4%.
